Measurements reported in a melting point compilation (Tetko et al.; mined from patent text by program, amines drawn as free bases though some values may be those of a salt).

SMILES | melting point
CC12CCC(C1)C1(C)Oc3ccc(C=O)cc3C21C (stereo not drawn) | 145 °C
CN(C(CCn1c(=O)[nH]c2cscc2c1=O)C(=O)NO)S(=O)(=O)c1ccc(Oc2ccccc2)cc1 (stereo not drawn) | 135 to 137 °C
C#CC1(O)C(C)CC2C3CCC4=CC(=O)CCC4(C)C3CCC21C (stereo not drawn) | > 230 °C
Cc1ccc(S(=O)(=O)c2ccc(N3CCC4(CC3)OCCO4)cc2)cc1 | 164 to 165 °C
COc1ccc(COc2cccc(C=O)c2OCc2ccc(OC)cc2)cc1 | 92 to 93 °C
FC(F)(F)Sc1ccc(C(F)(F)F)cc1 | 30 to 31 °C
CC(=O)NCC1CN(c2ccc(N3CCN(C4=NCCS4)CC3)c(F)c2)C(=O)O1 (stereo not drawn) | 219 to 223 °C
CCOC(=O)COc1cc(OCc2ccccc2)ccc1C(=O)CC | 81.5 to 82 °C
Cc1cc(C#N)cc(C(=O)Nc2ccc(F)cc2)n1 | 189 °C
COC(=O)COc1ccc(C(C)=O)c(OCCCBr)c1 | 67 to 70 °C
CC(=O)Oc1ccccc1C(=O)N1CCN(C(=O)c2ccccc2OC(C)=O)CC1 | 175 to 177 °C
COc1nc(OC)nc(N(C)C(=O)NS(=O)(=O)c2ccccc2C(F)F)n1 | 164 to 170 °C
CC(C)n1nc(-c2cnc(N)nc2-c2ccc(Cl)c(Cl)c2)ccc1=O | 176 °C
CCCSP(=O)(OCC)Oc1ccc2cc3ccccc3cc2c1 (stereo not drawn) | 79 to 83 °C
O=c1c2c(-c3ccccc3)n[nH]c2c2cccnc2n1-c1ccccc1 | > 300 °C
COc1ccc(Nc2nc(C=O)cs2)cc1 | 108 to 110 °C
CC(=O)N[C@@H](CCc1ccc([N+](=O)[O-])cc1)C(=O)O | 211 to 213 °C
CNC(=O)n1sc(-c2ccccc2)nc1=O | 210 °C
O=C1c2ccccc2-c2c1[nH]c(=O)c1ccccc21 | > 300 °C
COc1ccc(CC([N+](=O)[O-])C2(CCCCc3ccc(C)cc3)OCCO2)cc1OC (stereo not drawn) | 89 to 91 °C
COC(=O)Nc1ccc(O)c(Cl)c1 | 96 to 98 °C
O=C1CCCc2nc3ccccc3c(NCc3ccccc3F)c21 | 164 °C
CCOC(=O)C1CCc2c(oc3ccc(C(N)=O)cc23)C1 (stereo not drawn) | 206 to 208 °C
COc1cc2c(cc1OC)CN(CCCOc1ccc(NC(=O)c3ccc4ccccc4c3)cc1)CC2 | 189 to 190 °C
O=[N+]([O-])c1ccc(C=Cc2nc(Nc3ccc(O)cc3)c3ccccc3n2)o1 | 250 to 260 °C

SMILES | melting point
COC(=O)c1ccc(NC(=O)OCC2c3ccccc3-c3ccccc32)cc1O | 156 to 159 °C
COc1ccc(S(N)(=O)=O)cc1C(=O)NCC1CCCN1CC1=CCCCC1 (stereo not drawn) | 167 °C
O=C1CC(/C=C/c2ccccc2)=Nc2ccccc2N1Cc1ccccc1 | 150 to 151 °C
CCOC(=O)c1cn(C2CC2)c2nc3c(F)c(F)c(F)cc3cc2c1=O | 260 °C
CCCCCCCC(CC(=O)O)CC(=O)O | 43 to 44 °C
CCN1C(=O)C(C(N)=O)(c2ccc(Cl)c(Cl)c2)OS1=O (stereo not drawn) | 127 to 128 °C
C=CCn1c(-c2cccnc2)n[nH]c1=O | 120 to 125 °C
O=C(CCCCCNC(=O)[C@H](Cc1c[nH]c2ccccc12)NC(=O)CCCc1ccccc1)NO | 106 to 108 °C
CN(C)C(=S)N(C)Cc1ccc(CCn2cnc3cc(-c4ccc(Cl)cc4)sc3c2=O)cc1 | 156 to 158 °C
Fc1ccc(-c2ncn(C3CCNCC3)c2-c2ccnc(Oc3ccccc3F)n2)cc1 | 154 to 155 °C
C[C@@H](Nc1ncnc2[nH]c(-c3ccc(CN4CCNCC4)cc3)cc12)c1ccccc1 | 240 to 242 °C
CCCCOC1C=CC(=O)N1S(=O)(=O)c1cccc(C(F)(F)F)c1 (stereo not drawn) | 42 to 43 °C
O=C1c2ccccc2CCC1CNCC(O)c1cccc(O)c1 (stereo not drawn) | 140 to 143 °C
Cc1cc(CC(=O)NCc2cccc3c2C(=O)N(C2CCC(=O)NC2=O)C3=O)on1 (stereo not drawn) | 179 to 181 °C
O=C1c2ccccc2C(=O)N1CC=CCn1ccnc1 | 106 to 108 °C
CN1CCC(OC2c3ccccc3CCn3c2nc(-c2ccccc2)c3C(N)=O)CC1 (stereo not drawn) | 102 °C
CS(=O)(=O)c1ccc2c(c1)c1c(n2Cc2ccc(Cl)cc2)C(CC(=O)O)CCC1 (stereo not drawn) | 101 to 102 °C
COc1ccc(C#Cc2cc(C(=O)O)nc(C(=O)O)c2)cc1 | > 300 °C
O=c1[nH]c2cc([N+](=O)[O-])ccc2c(=O)n1CCCN1CC=C(c2ccc(Cl)cc2)CC1 | 210 to 212 °C
Nc1cc(-c2c(-c3ccc(F)cc3)ncn2CCCN2CCOCC2)ccn1 | 186 to 187 °C
N#CC1=C(c2ccccc2)Nc2n[nH]cc2C1c1cccc2ccccc12 (stereo not drawn) | 174 °C
CC(C)n1nc(C(=CN(C)C)C(=O)c2ccc(F)cc2)ccc1=O | 161 to 162 °C
CCCCOC(=O)C(C)NC(=O)c1cc([N+](=O)[O-])cc([N+](=O)[O-])c1 (stereo not drawn) | 93 to 96 °C
CC(C)(C)[Si](C)(C)Oc1cc(Cl)cc(C(=O)C(F)(F)F)c1N | 45 to 46.5 °C
COc1ccccc1S(=O)(=O)N(C)c1cccc2cc(C3=NCC(CC(=O)Nc4nnc[nH]4)S3)[nH]c12 (stereo not drawn) | 208 to 209 °C

SMILES | melting point
CCCCCCC(CCC(=O)O)CC(=O)O (stereo not drawn) | 70 to 71 °C
O=C(NN1CCCCC1)C1=NN(c2ccc(Cl)cc2Cl)C(c2ccccc2)C1 (stereo not drawn) | 160 to 164 °C
CCCCCCCCCN=C=O | 104 to 105 °C
Cc1oc(-c2ccccc2)nc1CNC(=O)c1ccc(Cn2cc(CCC(=O)O)c(-c3ccccc3)n2)cc1 | 177 to 178 °C
Cc1c(C)c(O)c(CN(C)C)c(C)c1O | 103 to 108 °C
O=C(C=P(c1ccccc1)(c1ccccc1)c1ccccc1)N1CCCCC1 | 180 to 188 °C
FC(F)Oc1ccc(-c2nc3ccc(OC(F)(F)F)cc3[nH]2)cc1 | 185 to 187 °C
CC(C)CN(Cc1ccccc1)c1ncnc2c1ncn2C1CCCCO1 (stereo not drawn) | 93 to 95 °C
COc1cc2c(cc1[N+](=O)[O-])[nH]c(=O)c(=O)n2C | 343 °C
CCCc1c(COCCOc2ccc(-c3nnn[nH]3)cc2)ccc(C(C)=O)c1O | 170 to 172 °C
CCOC(=O)c1ccnn1-c1c(Cl)cccc1Cl | 51 to 53 °C
Cc1ccc(-c2ccc3c(c2)C=C(C(=O)N2CCC(NC(=O)C(F)(F)F)CC2)CCO3)cc1 | 189 to 192 °C
COc1cc(OC)nc(NC(=O)NS(=O)(=O)c2ncccc2-c2ccccc2)n1 | 181 °C
CC(C)c1ccc(OC(Cc2ccc(OCCNC(=O)c3ccc(-c4ccc(F)cc4)cc3)cc2)C(=O)O)cc1 (stereo not drawn) | 192 to 193 °C
CC(O[Si](C)(C)C(C)(C)C)C1C(=O)NC1C1CCCC(OCCCl)C1O (stereo not drawn) | 97 to 100 °C
O=c1[nH]c2cccc(Cl)c2c2cc(CO)nn12 | 295 to 296 °C
O=C(Nc1c(C(O)(C(F)(F)F)C(F)(F)F)ccc2ccccc12)c1ccc(OC(F)(F)F)cc1 | 179 to 180 °C
CCC(CC)Oc1cc(C)nc(Nc2c(C)cc(C)cc2C)c1C(=O)n1ccnc1 | 120 to 122 °C
CC(C)(C)OC(=O)Nc1cc(N2CCC(OC3CCCCO3)CC2)c(-c2ccc(F)cc2)cc1[N+](=O)[O-] (racemic) | 144 to 146 °C
CC(C#Cc1ccc(Oc2cccnc2)o1)N(O)C(N)=O (stereo not drawn) | 128 °C
CCCOc1ccc(OCC(O)CNCCNc2c(C)cccc2C)cc1 (stereo not drawn) | 51 to 54 °C
CN1C(=O)C(C(=O)Nc2ccc(Cl)c(C(F)(F)F)c2)S(=O)(=O)c2ccc(Cl)cc21 (stereo not drawn) | 220 to 222 °C
NC(=O)c1cccc(N)c1N | 103 to 105 °C
CCc1oc2ccccc2c1C(=O)NCc1ccc2c(Br)c(O)ccc2c1 | 188 to 190 °C
COc1nc(Cl)nc(NC(C#N)C#N)n1 | 164 to 166 °C

SMILES | melting point
CNC(=O)n1cc(Br)cnc1=O | 236 to 238 °C
CCOC(=O)CCCn1c(C(=O)C2CCN(CCC3(c4ccc(Cl)c(Cl)c4)CCN(C(=O)c4cc(OC)c(OC)c(OC)c4)C3)CC2)nc2ccccc21 (stereo not drawn) | 58 to 65 °C
c1ccc(COc2ccc(NC3Cc4ccccc4C3)cc2)cc1 | 72 to 75 °C
Cc1ccc(C(=O)NCCCn2ccnc2)c(Nc2ccc3cn[nH]c3c2)n1 | 203 to 205 °C
CCC(CC)c1nccc2c(CC(=O)O)cccc12 | 107 to 109 °C
N#CSc1nc(Cl)ncc1Cl | 160 to 162 °C
CCCSc1ncc(CC(NC(=O)CC(C)C)C(=O)O)n1Cc1ccccc1Cl (stereo not drawn) | 151 to 154 °C
CCCCCCCCCCC1(CCCCCCCCCC)c2cc(C=Cc3ccncc3)ccc2-c2ccc(N(c3ccccc3)c3ccccc3)cc21 | 88.4 to 89.3 °C
Cc1c(C=O)c2c(c(C)c1NC(=O)NC(C)(C)C)C(c1ccc(C(C)C)cc1)CO2 (single isomer, unassigned; (-)) | 209 to 210 °C
CCSc1ccc(C2=NC[C@@H](OC(=O)Nc3ccccc3)[C@H](c3ccccc3)O2)cc1 (racemic) | 70 °C
O=C(Nc1ncc[nH]1)c1cnc2c(C(F)(F)F)cccc2c1O | 211 °C
Cn1c(C(F)(F)F)cc(=O)n(-c2cc(OCc3cccc(F)c3)c(Cl)cc2F)c1=O | 135 to 137 °C
CN1CCCC1CC(O)c1cccc(O)c1 (stereo not drawn) | 147 to 150 °C
C=CCSc1nc(=O)n(-c2ccsc2)cc1F | 125 to 127 °C
Cc1cc(CCCCCCCOc2ccc(C3=NCCO3)cc2Cl)on1 | 88 °C
CS(=O)(=O)c1ccc(-c2cc(-c3ccc(F)cc3)n3c2CCC3)cc1 | 176 to 179 °C
CC(C)(C)OC(=O)C[C@@H](CC1CCCC1)C(=O)N1CCCCC1 | 38 to 40 °C
COc1ccc(Cn2c(NC3CCN(CCNc4ncccn4)CC3)nc3ccccc32)cc1 | 160 °C
O=[N+]([O-])c1ccccc1Nc1ccc(-c2ccc(Nc3ccccc3[N+](=O)[O-])cc2)cc1 | 211 to 222 °C
Nc1nc(N)c2ncn(C3C=CC(CO)C3)c2n1 (stereo not drawn) | 152 to 155 °C
O=C1NC(=O)C(Cc2ccc([N+](=O)[O-])cc2)N1 (stereo not drawn) | > 235 °C
O=C(O)CCc1cn(Cc2ccc(OCc3csc(-c4ccccc4)n3)nc2)nc1-c1ccccc1 | 107 to 108 °C
CN(CCNC(=O)NCCCOc1cccc(CN2CCCCC2)c1)CCC(c1ccc(F)cc1)c1ccccn1 (stereo not drawn) | 111 to 115 °C
